Laboratory results published in paper PMC10460880, “Cathepsin K‐Activated Probe for Fluoro‐Photoacoustic Imaging of Early Osteolytic Metastasis” (Advanced Science, 2023).

What was measured:
[1] = test system: MDA-MB-231/Luc-induced osteolytic metastasis; test: Real-time NIR fluorescence and PA imaging of osteolytic metastasis; format: in vivo, BALB/c nude mice; conditions: i.v. 50 μM, 200 μL; imaged 0-24 h; n = 3
Protocol: page 5: PS. RAW 264.7 cells and BMMs were maintained in an atmosphere of 5% CO2 and 95% humidified air at 37 °C. The medium was changed every day. Cell cytotoxicity assay. MDA-MB-231/Luc and RAW 264.7 cells were seeded in 96-well plates (5×10^3 cells per well) for 24 h and then incubated with CTSK-APPA or CTSK-APP (5, 10, 20, 50 μM) or saline for 24 h. The medium was removed and cells were incubated with CCK-8 (0.5 mg/mL) for another 1 h. The absorbance of the mixture at 450 nm was measured by using a microplate reader. Cell viability was expressed by the ratio of the absorbance of the cells incubated with the probes to that of the cells incubated with culture medium only. In vitro osteoclast differentiation. Bone marrow-derived macrophages were isolated from the femurs and tibias of 4-week-old C57BL/6J mice and cultured in a complete medium containing M-CSF (30 ng/mL) for 4 days. […] Fluorescence images were captured by using the IVIS Spectrum imaging system with excitation at 660 ± 10 nm and emission at 710 ± 10 nm. […] The bone marrow toxicity of CTSK-APPA and CTSK-APP was assessed by blood analyses in mice. […] The red blood count (RBC) and white blood count (WBC) were further measured. […] The supernatants containing excreted probes were quantified by using a UV-vis absorption spectrometer. […]

OCs = test: Cell selectivity experiment, osteoclasts; format: cell-based; conditions: n = 3
cathepsin K (CTSK) = molecular target: T1, cathepsin K (CTSK) (Homo sapiens, UniProt P43235); test: CTSK activation of probe adsorbed on HA; format: biochemical; conditions: probe 10 μM on HA 10 mg/mL (30 min), then CTSK 200 ng/mL, n = 3
T1 sequence (P43235 115-329): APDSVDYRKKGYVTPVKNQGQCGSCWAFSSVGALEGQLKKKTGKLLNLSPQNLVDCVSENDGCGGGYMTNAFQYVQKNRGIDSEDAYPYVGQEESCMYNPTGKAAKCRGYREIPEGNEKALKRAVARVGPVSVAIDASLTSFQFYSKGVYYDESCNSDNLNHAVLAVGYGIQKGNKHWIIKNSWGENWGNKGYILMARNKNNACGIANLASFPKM
Protocol: In Vitro bone-binding and CTSK activation assay. Hydroxyapatite (HA) was used as a substitute for bone in vitro to evaluate the bone-binding ability of CTSK-APPA and CTSK-APP. CTSK-APPA or CTSK-APP (10 μM) was mildly stirred with HA (10 mg/mL) at 37 °C for different times (0, 10, 30, 60, and 120 min). The mixture was centrifugated at 4000 g for 5 min and then washed with a 10-fold excess of PBS (1×) three times. The efficiency of HA binding was determined from the fluorescence intensities of the precipitation according to the equation: (F – Fblank)/(F0 – Fblank)*100%, where F represents the fluorescence intensity of the precipitation incubated with HA for a determined time, and Fblank represents the blank fluorescence intensity. After verifying the appropriate bone-binding time, CTSK-APPA or CTSK-APP (10 μM) was mixed with HA (10 mg/mL) at 37 °C for 30 min, and then CTSK (200 ng/mL) was added to the corresponding mixture and incubated at 37 °C for another 1 h under mild stirring. The mixture was centrifugated at 4000 g for 5 min and then washed with a 10-fold excess of MES buffer (50 mM, pH 6.0) three times. Fluorescence images were captured by using the IVIS Spectrum imaging system with excitation at 660 ± 10 nm and emission at 710 ± 10 nm. PA images were captured by using a MSOT scanner with excitation at 700 nm. […]

[2] = Histology (H&E) of organs after injection; format: in vivo, mice; conditions: 24 h post intravenous administration

For Cbz‐Leu‐Arg‐OH [CTSK-APPA], which “time of maximum NIR fluorescence and PA signal post-injection” value [1] is on record?
Its value is 4 h.

What about the “NIR fluorescence after incubation with OCs” value (OCs) of the same substance?
Its value is “strong NIR fluorescence signals”.

And the “fluorescence on/off ratio of HA-adsorbed probe” value (cathepsin K (CTSK); Ex 660 nm, 720 nm)?
The value was 5.1.

What about the “enhancement factor for PA signal of HA-adsorbed probe” value (cathepsin K (CTSK); Ex 700 nm) of the same substance?
Its value is “approximately 2.8”.

What about the “histological changes (H&E) after injection” value [2] of the same substance?
The value was “no histological changes”.
